In patent US20040248821A1, “Composition for the treatment of lupus” (priority 2001, published 2004):
“Also recorded” adds a separate entry of the source.

What was measured:
[1] = tested on: patients with Lupus (SLE); assay: Treatment of human Lupus patients with the inventive composition (case reports); assay type: in vivo; conditions: flavonoid replacing Quercetin in the inventive formula; limited tests
[2] = tested on: osteoarthritis or Lupus caused joint inflammation; conditions: Bromelain alone; cited from earlier work

## O=c1cc(-c2ccc(O)c(O)c2)oc2cc(O)cc(O)c12 [Luteolin]
[1]
  Effectiveness of the flavonoid in the inventive formula (with Bromelain and Vitamin C): also effective; also recorded: somewhat more effective than Quercetin

## O=c1c(O)c(-c2cc(O)c(O)c(O)c2)oc2cc(O)cc(O)c12 [Myricetin]
[1]
  Effectiveness of the flavonoid in the inventive formula (with Bromelain and Vitamin C): also effective; also recorded: somewhat effective

## Bromelain
[2]
  Ameliorating joint pain: not effective
